Data on 6 compounds can be found in patent US6413946B1, “Composition for treatment of diabetes and treatment of diabetes” (Meiji Seika Kaisha, Ltd., priority 1997, dated 2002).

A word on the LD50: it is the dose expected to kill half of the subjects tested. A higher LD50 goes with a less toxic substance.

Series [1] deals with STZ diabetic rats. Put plainly: Biochemical tests of blood of STZ diabetic rats (Example 2). It is filed as in vivo, Wistar rats. The settings on record: 320 mg/kg oral twice a day for 5 consecutive days. The method, then: To male Wistar 7-week-old rats (7 rats per group), which were intravenously administered with a single dose of 60 mg/kg of STZ and which were confirmed to have been made diabetic after the lapse of 1 week from the STZ administration, fosfomycin disodium salt or fosfomycin calcium salt (FOM-Ca) was orally administered at a dose of 320 mg/kg, twice a day for 5 consecutive days. Then, sample of the blood of each test rat was taken and subjected to the biochemical tests.

Series [2] has as its system STZ diabetic rats. The series can be described thus: Biochemical test of urine sample of STZ diabetic rats (Example 1). It is filed as in vivo, Wistar rats. The note with it: oral twice a day for 5 consecutive days, VOSO4 50 mg/kg, FOM-Na 160 mg/kg. The method, then: (§1) In this Example, as animals to be tested, the STZ diabetic rats were prepared from normal Wistar rats having an average body weight of 250 g (male, 6 weeks of age). For this purpose, the normal Wistar rats were made diabetic by a single administration of a dose of 60 mg/kg of STZ intravenously. The normal Wistar rats (male) which are to be subjected to the STZ administration, when they were given 20 g/day of feed and 36 g/day of water, had have such body conditions that average values each of their urine volume output, serum glucose level, serum urea nitrogen level, serum creatinine level, serum total protein level and serum albumin level of the rats are amounting to 18 ml, 152 mg/dl, 18.0 mg/dl, 0.5 mg/dl, 5.63 g/dl and 4.2 g/dl, respectively.
(§2) The STZ diabetic rats as prepared and used in this Example are such those rats (7 weeks of age, 6 rats per group) which had received an intravenous administration of a single dose of 60 mg/kg of STZ and which were confirmed to have been made diabetic with their showing such symptom that their serum glucose level was not less than 400 (mg/dl), when measured by sampling their blood at 1 week lapse from the STZ administration.
(§3) One week after the intravenous administration of single dose 60 mg/kg of STZ, to the male 7-week-old Wistar rats (6 rats per group), which have been confirmed to have the symptoms of diabetes, were orally administered either one or both of vanadyl sulfate VOSO4 at a single dose of 50 mg/kg and fosfomycin disodium salt (abbreviated as FOM-Na) at a single dose of 160 mg/kg, twice a day for 5 consecutive days, by administration of the test compound(s) in the form of the aqueous solutions. The body weight, amounts (volumes) of feed taken, water taken and urine volume output of the rats under test were measured with lapse of time. Further, sampling of blood from the rats was effected at a time of 24 hours after the final administration of the compound(s) tested. Samplings of the urine from the rats were effected over 12 hours after the final administration of the compound(s) tested, and the blood sample and the urine samples as collected were subjected to the following biochemical tests.
(§4) In the biological tests of the blood sample above-mentioned, there were measured the serum glucose level, serum urea nitrogen level, serum creatinine level, serum total protein level and serum albumin level. In the biochemical tests of the urine sample, there were measured the collected amounts of the glucose, total protein and creatinine present in the urine. […] These rats for the comparative purpose were tested similarly to the above tests.

Series [3] relates to STZ diabetic rats. The series can be described thus: General observation of body conditions of STZ diabetic rats (Example 1). The class given is in vivo, Wistar rats. The note with it: oral twice a day for 5 consecutive days, VOSO4 50 mg/kg, FOM-Na 160 mg/kg. The method, then: as §1, §2, §3, §4
In series [4] the test system is STZ diabetic rats. The series can be described thus: Biochemical tests of serum (blood) sample of STZ diabetic rats (Example 1). The class given is in vivo, Wistar rats. The note with it: oral twice a day for 5 consecutive days, fosfomycin disodium salt 160 mg/kg, vanadyl sulfate 50 mg/kg, alone or combined. The procedure:
In this Example, as animals to be tested, the STZ diabetic rats were prepared from normal Wistar rats having an average body weight of 250 g (male, 6 weeks of age). For this purpose, the normal Wistar rats were made diabetic by a single administration of a dose of 60 mg/kg of STZ intravenously. […]
as §2
One week after the intravenous administration of single dose 60 mg/kg of STZ, to the male 7-week-old Wistar rats (6 rats per group), which have been confirmed to have the symptoms of diabetes, were orally administered either one or both of vanadyl sulfate VOSO4 at a single dose of 50 mg/kg and fosfomycin disodium salt (abbreviated as FOM-Na) at a single dose of 160 mg/kg, twice a day for 5 consecutive days, by administration of the test compound(s) in the form of the aqueous solutions. The body weight, amounts (volumes) of feed taken, water taken and urine volume output of the rats under test were measured with lapse of time. […]

Series [5] concerns rats. The series can be described thus: Toxicity in rats at oral administration. It is filed as in vivo.
The subject of series [6] is Na,K-ATPase. The settings on record: cited from earlier work.
Series [7] deals with STZ diabatic rats. The settings on record: aqueous saline solution as drinking water; 6th week after the administration; cited from earlier work.

“Also recorded” adds a separate entry of the source.

For `C[C@@H]1O[C@@H]1P(=O)([O-])[O-].[Na+].[Na+]` [FOM-Na, fosfomycin disodium salt], the “Effect on serum glucose level / symptoms of diabetes (in words)” value (from here on “Effect on serum glucose level / symptoms”) in series [1] (disodium salt) is reported as “evidently ameliorate an unusually high serum glucose level; also recorded: clearly ameliorate”. In series [1] (Day 0), the “Blood Glucose” value was found to be 432 ± 6 mg/dL and the “Blood Triglyceride” value came to 211 ± 30 mg/d1. Besides, in series [1] (Day 5), the “Blood Albumin” value stood at 4.0 ± 0.1 g/dL, the “Blood Creatinine” value is 0.50 ± 0.00 mg/dL, the “Blood Glucose” value stood at 345 ± 23 mg/dL and the “Blood Total protein” value came out at 5.26 ± 0.06 g/dL. Besides, in series [1] (Day 5), the “Blood Triglyceride” value was 65 ± 3 mg/d1. Moreover, in series [2] (Day 0), the “Urine Creatinine” value was 12.5 ± 0.7 mg/12 hr, the “Urine Glucose” value is given as 9.2 ± 0.9 g/12 hr and the “Urine Total protein” value was 4.2 ± 1.1 g/12 hr. For the same compound, in series [2] (Day 5), the “Urine Creatinine” value turned out to be 12.5 ± 0.8 mg/12 hr, the “Urine Glucose” value was found to be 8.9 ± 1.3 g/12 hr and the “Urine Total protein” value is 5.6 ± 2.2 g/12 hr. For the same compound, in series [3] (Day 0), the Body weight was found to be 235 ± 4 g, the Feed volume taken stood at 36 ± 1 g, the Urine volume output was found to be 115 ± 5 mL and the Water volume taken is 153 ± 5 g. In series [3] (Day 5), the Body weight was found to be 282 ± 3 g, the Feed volume taken is 37 ± 1 g, the Urine volume output was determined as 106 ± 7 mL and the Water volume taken was 142 ± 16 g. For the same compound, the “Effect on serum glucose level (in words)” value in series [4] (disodium salt) is on record as “tendency to improve the serum glucose level; also recorded: action of lowering an unusually high serum glucose level”.
On to `O=S(=O)([O-])[O-].[O]=[V+2]` [VOSO4, vanadyl sulfate], for which, in series [2] (Day 0), the “Urine Creatinine” value worked out at 12.5 ± 1.8 mg/12 hr, the “Urine Glucose” value turned out to be 9.1 ± 1.4 g/12 hr and the “Urine Total protein” value was found to be 7.2 ± 8.2 g/12 hr. Further, in series [2] (Day 5), the “Urine Creatinine” value worked out at 12.1 ± 2.5 mg/12 hr, the “Urine Glucose” value came out at 6.8 ± 3.2 g/12 hr and the “Urine Total protein” value stood at 3.9 ± 0.8 g/12 hr. Moreover, in series [3] (Day 0), the Body weight came out at 226 ± 8 g, the Feed volume taken worked out at 35 ± 2 g, the Urine volume output was found to be 111 ± 10 mL and the Water volume taken amounted to 140 ± 12 g. In series [3] (Day 5), this compound came in with a Body weight of 239 ± 9 g, a Feed volume taken of 29 ± 4 g, a Urine volume output of 82 ± 21 mL and a Water volume taken of 99 ± 24 g. The “Effect on serum glucose level (in words)” value in series [4] was “action of lowering an unusually high serum glucose level”. Further, the “Toxicity (in words)” value in series [5] (oral administration of 50 mg/kg) is recorded as “no toxicity”.
Turning to `C[C@@H]1O[C@@H](O[C@H]2C[C@@H](O)[C@]3(CO)[C@H]4[C@H](O)C[C@]5(C)[C@@H](C6=CC(=O)OC6)CC[C@]5(O)[C@@H]4CC[C@]3(O)C2)[C@H](O)[C@H](O)[C@H]1O` [ouabain], the “Inhibition of Na,K-ATPase (in words)” value in series [6] is on record as “strong inhibitor”.
As for `C[C@@H]1O[C@@H]1P(=O)([O-])[O-].[Ca+2]` [FOM-Ca, fosfomycin calcium salt], the “Effect on serum glucose level / symptoms” value in series [1] (listed as calcium salt, calcium salt) was “evidently ameliorate an unusually high serum glucose level”. The “Effect on serum glucose level / symptoms” value in series [1] (listed as fosfomycin calcium salt, calcium salt) is listed as “clearly ameliorate”. Further, in series [1] (Day 0), the “Blood Glucose” value is 431 ± 5 mg/dL and the “Blood Triglyceride” value came out at 178 ± 18 mg/d1. Further, in series [1] (Day 5), the “Blood Albumin” value was determined as 4.1 ± 0.1 g/dL, the “Blood Creatinine” value amounted to 0.51 ± 0.01 mg/dL, the “Blood Glucose” value was found to be 336 ± 23 mg/dL and the “Blood Total protein” value turned out to be 5.37 ± 0.07 g/dL. Moreover, the “Blood Triglyceride” value in series [1] (Day 5) was 59 ± 7 mg/d1. The compound further came in with an LD50 in series [5] (oral administration) of at least 3500 mg/kg.
Consider `[Na+].[Na+].[Na+].[O]=[V]([O-])([O-])[O-]` [sodium orthovanadate], for which the “Inhibition of Na,K-ATPase (in words)” value in series [6] is on record as “strongly inhibit”.
On to sodium metavanadate, for which, in series [7], the “Serum glucose level (in words)” value was “returned to the normal level”.
